In publication doi:10.1101/2022.12.07.519454v2 (biorxiv, 2023) one finds Ki and IC50 data, which are given here for 2 compounds.

The target of test [1] is T1, yeast Sin3 PAH2 domain (Saccharomyces cerevisiae, UniProt P22579).
T1 sequence (P22579 402-473): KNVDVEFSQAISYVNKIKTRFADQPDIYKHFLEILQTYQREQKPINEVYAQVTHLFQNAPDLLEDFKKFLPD
The experiment in a line: fluorescence polarization displacement of FITC-Ume6 SID. Type of test: binding.

Test [2] has as its target T1, yeast Sin3 PAH2 domain. The experiment in a line: fluorescence polarization displacement of FITC-Ume6 SID peptide. Type of test: binding.

Structures are written as SMILES.

`C[C@@H](NC(=O)C1C(=O)N=C2C=CC=CN2C1O)c1ccccc1` (stereo partly drawn) [E6R, 4-hydroxy-2-oxo-N-((R)-1-phenylethyl)-3,4-dihydro-2H-pyrido[1,2-a]pyrimidine-3-carboxamide] came in with a Ki on yeast Sin3 PAH2 domain [1] of 16.1 µM. Also, at yeast Sin3 PAH2 domain [2], the IC50 came out at 74.5 ± 7.2 µM.
On the same counts, the results for `C[C@H](NC(=O)C1C(=O)N=C2C=CC=CN2C1O)c1ccccc1` (stereo partly drawn) [E6S, 4-hydroxy-2-oxo-N-((S)-1-phenylethyl)-3,4-dihydro-2H-pyrido[1,2-a]pyrimidine-3-carboxamide] are 38.5 µM and 174 ± 21.9 µM.
